MIC data for 26 compounds are collected here from ChEMBL document CHEMBL1138099, “Synthesis and structure-activity studies of antibacterial oxazolidinones containing dihydrothiopyran or dihydrothiazine C-rings” (2006).

Structures are written as SMILES. Values after ≈ are worked out from the molar mass of the structure shown.

Common to all, as to format: functional
The test system of one assay is Moraxella catarrhalis. In words: Antimicrobial activity against Moraxella catarrhalis.
In a further assay the test system is Haemophilus influenzae. In words: Antimicrobial activity against Haemophilus influenzae.
The next assay relates to Staphylococcus aureus. In words: Antimicrobial activity against Staphylococcus aureus.
For a further assay, the system named is Streptococcus pneumoniae. In words: Antimicrobial activity against Streptococcus pneumoniae.
In another assay the test system is Enterococcus faecium. In words: Antimicrobial activity against Enterococcus faecium UC12712.

Consider `CC(=O)NC[C@H]1CN(c2ccc(C3CCS(=O)(=O)CC3)c(F)c2)C(=O)O1`, for which the MIC against Moraxella catarrhalis came to 2 µg/mL (≈ 5.2 µM); with Haemophilus influenzae it was 4 µg/mL (≈ 10.4 µM); against Staphylococcus aureus, 2 µg/mL (≈ 5.2 µM); in the assay with Streptococcus pneumoniae, 0.5 µg/mL (≈ 1.3 µM); in the assay on Enterococcus faecium, 2 µg/mL (≈ 5.2 µM).

As to `CC(=O)NC[C@H]1CN(c2ccc(C3C=CS(=O)(=O)CC3)c(F)c2)C(=O)O1` (stereo partly drawn), the MIC against Moraxella catarrhalis came to 2 µg/mL (≈ 5.23 µM); in the assay with Haemophilus influenzae it was 8 µg/mL (≈ 20.9 µM); against Staphylococcus aureus, 4 µg/mL (≈ 10.5 µM); in the assay with Streptococcus pneumoniae it was 1 µg/mL (≈ 2.61 µM); against Enterococcus faecium, 2 µg/mL (≈ 5.23 µM).

Turning to `O=C(NC[C@H]1CN(c2ccc(C3C=CS(=O)(=O)CC3)c(F)c2)C(=O)O1)C(Cl)Cl` (stereo partly drawn), the MIC against Moraxella catarrhalis came out at 2 µg/mL (≈ 4.43 µM); against Haemophilus influenzae it was 4 µg/mL (≈ 8.86 µM); in the assay with Staphylococcus aureus, 2 µg/mL (≈ 4.43 µM); against Streptococcus pneumoniae, 0.5 µg/mL (≈ 1.11 µM); against Enterococcus faecium, 2 µg/mL (≈ 4.43 µM).

As for `O=C1O[C@@H](C/N=C(/S)C(F)F)CN1c1ccc(C2C=CS(=O)(=O)CC2)cc1` (stereo partly drawn), the MIC with Moraxella catarrhalis came to 4 µg/mL (≈ 9.6 µM); in the assay with Haemophilus influenzae it was 8 µg/mL (≈ 19.2 µM); in the assay with Staphylococcus aureus, 2 µg/mL (≈ 4.8 µM); in the assay on Streptococcus pneumoniae, 0.5 µg/mL (≈ 1.2 µM); in the assay with Enterococcus faecium, 2 µg/mL (≈ 4.8 µM).

On to `O=C1O[C@@H](C/N=C(/S)C(F)F)CN1c1ccc(N2C=CS(=O)(=O)CC2)cc1`, for which the MIC was 4 µg/mL (≈ 9.58 µM) with Moraxella catarrhalis; 4 µg/mL (≈ 9.58 µM) in the assay with Haemophilus influenzae; 2 µg/mL (≈ 4.79 µM) against Staphylococcus aureus; 0.5 µg/mL (≈ 1.2 µM) with Streptococcus pneumoniae; 1 µg/mL (≈ 2.4 µM) in the assay on Enterococcus faecium.

For the compound `O=C(NC[C@H]1CN(c2ccc(C3C=CS(=O)(=O)CC3)cc2)C(=O)O1)C(F)F` (stereo partly drawn), the MIC in the assay on Moraxella catarrhalis amounted to 4 µg/mL (≈ 9.99 µM); with Haemophilus influenzae, 8 µg/mL (≈ 20 µM); with Staphylococcus aureus, 4 µg/mL (≈ 9.99 µM); in the assay on Streptococcus pneumoniae it was 1 µg/mL (≈ 2.5 µM); against Enterococcus faecium, 4 µg/mL (≈ 9.99 µM).

For `O=C1O[C@@H](C/N=C(/S)C(F)F)CN1c1ccc(N2C=CS(=O)(=O)CC2)c(F)c1`, the MIC was found to be 4 µg/mL (≈ 9.19 µM) in the assay with Moraxella catarrhalis; 4 µg/mL (≈ 9.19 µM) against Haemophilus influenzae; 1 µg/mL (≈ 2.3 µM) against Staphylococcus aureus; 0.5 µg/mL (≈ 1.15 µM) against Streptococcus pneumoniae; 1 µg/mL (≈ 2.3 µM) against Enterococcus faecium.

For `O=C1O[C@@H](C/N=C(/S)C(F)F)CN1c1cc(F)c(N2C=CS(=O)(=O)CC2)c(F)c1`, the MIC against Moraxella catarrhalis stood at 2 µg/mL (≈ 4.41 µM); in the assay with Haemophilus influenzae, 4 µg/mL (≈ 8.82 µM); against Staphylococcus aureus, 1 µg/mL (≈ 2.21 µM); in the assay on Streptococcus pneumoniae, 0.25 µg/mL (≈ 0.551 µM); in the assay with Enterococcus faecium, 0.25 µg/mL (≈ 0.551 µM).

In the case of `O=C(NC[C@H]1CN(c2cc(F)c(N3C=CS(=O)(=O)CC3)c(F)c2)C(=O)O1)C(F)F`, the MIC in the assay on Moraxella catarrhalis was found to be 4 µg/mL (≈ 9.15 µM); against Haemophilus influenzae, 4 µg/mL (≈ 9.15 µM); in the assay with Staphylococcus aureus it was 4 µg/mL (≈ 9.15 µM); against Streptococcus pneumoniae it was 0.5 µg/mL (≈ 1.14 µM); in the assay with Enterococcus faecium, 1 µg/mL (≈ 2.29 µM).

In the case of `CC(=O)NC[C@H]1CN(c2ccc(C3C=CS(=O)(=O)CC3)cc2)C(=O)O1` (stereo partly drawn), the MIC stood at 8 µg/mL (≈ 22 µM) in the assay on Moraxella catarrhalis; 8 µg/mL (≈ 22 µM) against Haemophilus influenzae; 4 µg/mL (≈ 11 µM) with Staphylococcus aureus; 1 µg/mL (≈ 2.74 µM) against Streptococcus pneumoniae; 4 µg/mL (≈ 11 µM) in the assay on Enterococcus faecium.

With `CC(=O)NC[C@H]1CN(c2cc(F)c(C3C=CS(=O)(=O)CC3)c(F)c2)C(=O)O1` (stereo partly drawn), the MIC was determined as 8 µg/mL (≈ 20 µM) against Moraxella catarrhalis; 8 µg/mL (≈ 20 µM) against Haemophilus influenzae; 4 µg/mL (≈ 9.99 µM) with Staphylococcus aureus; 1 µg/mL (≈ 2.5 µM) with Streptococcus pneumoniae; 2 µg/mL (≈ 4.99 µM) in the assay on Enterococcus faecium.

`O=C(NC[C@H]1CN(c2ccc(C3C=CS(=O)(=O)CC3)c(F)c2)C(=O)O1)C(F)F` (stereo partly drawn): the MIC is 4 µg/mL (≈ 9.56 µM) in the assay with Moraxella catarrhalis; 4 µg/mL (≈ 9.56 µM) against Haemophilus influenzae; 2 µg/mL (≈ 4.78 µM) in the assay on Staphylococcus aureus; 1 µg/mL (≈ 2.39 µM) with Streptococcus pneumoniae; 2 µg/mL (≈ 4.78 µM) with Enterococcus faecium.

Regarding `O=C1O[C@@H](C/N=C(/S)C(F)F)CN1c1cc(F)c(C2C=CS(=O)(=O)CC2)c(F)c1` (stereo partly drawn), the MIC in the assay on Moraxella catarrhalis came to 4 µg/mL (≈ 8.84 µM); in the assay with Haemophilus influenzae, 16 µg/mL (≈ 35.4 µM); against Staphylococcus aureus, 1 µg/mL (≈ 2.21 µM); with Streptococcus pneumoniae it was 0.5 µg/mL (≈ 1.11 µM); against Enterococcus faecium, 2 µg/mL (≈ 4.42 µM).

For the compound `O=C(NC[C@H]1CN(c2ccc(N3C=CS(=O)(=O)CC3)cc2)C(=O)O1)C(Cl)Cl`, the MIC against Moraxella catarrhalis amounted to 2 µg/mL (≈ 4.61 µM); in the assay on Haemophilus influenzae, 2 µg/mL (≈ 4.61 µM); with Staphylococcus aureus, 4 µg/mL (≈ 9.21 µM); in the assay with Streptococcus pneumoniae, 0.5 µg/mL (≈ 1.15 µM); in the assay with Enterococcus faecium, 2 µg/mL (≈ 4.61 µM).

In the case of `CC(=O)NC[C@H]1CN(c2ccc(N3C=CS(=O)(=O)CC3)c(F)c2)C(=O)O1`, the MIC in the assay on Moraxella catarrhalis turned out to be 2 µg/mL (≈ 5.22 µM); against Haemophilus influenzae it was 4 µg/mL (≈ 10.4 µM); against Staphylococcus aureus, 4 µg/mL (≈ 10.4 µM); against Streptococcus pneumoniae, 0.5 µg/mL (≈ 1.3 µM); with Enterococcus faecium, 2 µg/mL (≈ 5.22 µM).

With `O=C(NC[C@H]1CN(c2cc(F)c(C3C=CS(=O)(=O)CC3)c(F)c2)C(=O)O1)C(F)F` (stereo partly drawn), the MIC in the assay on Moraxella catarrhalis turned out to be 8 µg/mL (≈ 18.3 µM); against Haemophilus influenzae it was 8 µg/mL (≈ 18.3 µM); against Staphylococcus aureus, 2 µg/mL (≈ 4.58 µM); against Streptococcus pneumoniae, 1 µg/mL (≈ 2.29 µM); against Enterococcus faecium it was 2 µg/mL (≈ 4.58 µM).

In the case of `O=C(NC[C@H]1CN(c2ccc(N3C=CS(=O)(=O)CC3)c(F)c2)C(=O)O1)C(F)F`, the MIC was found to be 4 µg/mL (≈ 9.54 µM) in the assay with Moraxella catarrhalis; 4 µg/mL (≈ 9.54 µM) in the assay on Haemophilus influenzae; 4 µg/mL (≈ 9.54 µM) against Staphylococcus aureus; 0.5 µg/mL (≈ 1.19 µM) in the assay on Streptococcus pneumoniae; 2 µg/mL (≈ 4.77 µM) in the assay on Enterococcus faecium.

Regarding `CC(=O)NC[C@H]1CN(c2cc(F)c(N3C=CS(=O)(=O)CC3)c(F)c2)C(=O)O1`, the MIC against Moraxella catarrhalis worked out at 4 µg/mL (≈ 9.97 µM); against Haemophilus influenzae, 8 µg/mL (≈ 19.9 µM); against Staphylococcus aureus, 2 µg/mL (≈ 4.98 µM); in the assay with Streptococcus pneumoniae, 0.5 µg/mL (≈ 1.25 µM); against Enterococcus faecium, 1 µg/mL (≈ 2.49 µM).

As for `CC(=O)NC[C@H]1CN(c2cc(F)c(N3CCS(=O)(=O)CC3)c(F)c2)C(=O)O1`, the MIC against Moraxella catarrhalis came to 4 µg/mL (≈ 9.92 µM); with Haemophilus influenzae it was 4 µg/mL (≈ 9.92 µM); against Staphylococcus aureus, 2 µg/mL (≈ 4.96 µM); in the assay with Streptococcus pneumoniae, 1 µg/mL (≈ 2.48 µM); in the assay on Enterococcus faecium, 2 µg/mL (≈ 4.96 µM).

In the case of `O=C(NC[C@H]1CN(c2cc(F)c(C3C=CS(=O)(=O)CC3)c(F)c2)C(=O)O1)C(Cl)Cl` (stereo partly drawn), the MIC with Moraxella catarrhalis was found to be 4 µg/mL (≈ 8.52 µM); against Haemophilus influenzae, 8 µg/mL (≈ 17 µM); against Staphylococcus aureus, 2 µg/mL (≈ 4.26 µM); against Streptococcus pneumoniae, 0.5 µg/mL (≈ 1.07 µM); in the assay on Enterococcus faecium, 2 µg/mL (≈ 4.26 µM).

`O=C(NC[C@H]1CN(c2ccc(N3C=CS(=O)(=O)CC3)cc2)C(=O)O1)C(F)F`: the MIC is 4 µg/mL (≈ 9.97 µM) with Moraxella catarrhalis; 8 µg/mL (≈ 19.9 µM) against Haemophilus influenzae; 4 µg/mL (≈ 9.97 µM) in the assay with Staphylococcus aureus; 1 µg/mL (≈ 2.49 µM) against Streptococcus pneumoniae; 2 µg/mL (≈ 4.98 µM) with Enterococcus faecium.

Consider `O=C(NC[C@H]1CN(c2ccc(C3C=CS(=O)(=O)CC3)cc2)C(=O)O1)C(Cl)Cl` (stereo partly drawn), for which the MIC in the assay on Moraxella catarrhalis amounted to 4 µg/mL (≈ 9.23 µM); against Haemophilus influenzae, 4 µg/mL (≈ 9.23 µM); against Staphylococcus aureus it was 2 µg/mL (≈ 4.62 µM); in the assay with Streptococcus pneumoniae, 0.5 µg/mL (≈ 1.15 µM); against Enterococcus faecium, 2 µg/mL (≈ 4.62 µM).

For the compound `O=C(NC[C@H]1CN(c2cc(F)c(N3C=CS(=O)(=O)CC3)c(F)c2)C(=O)O1)C(Cl)Cl`, the MIC with Moraxella catarrhalis was 4 µg/mL (≈ 8.51 µM); with Haemophilus influenzae it was 4 µg/mL (≈ 8.51 µM); with Staphylococcus aureus, 4 µg/mL (≈ 8.51 µM); against Streptococcus pneumoniae, 0.5 µg/mL (≈ 1.06 µM); against Enterococcus faecium it was 1 µg/mL (≈ 2.13 µM).

Take `O=C1O[C@@H](C/N=C(/S)C(F)F)CN1c1ccc(C2C=CS(=O)(=O)CC2)c(F)c1` (stereo partly drawn): the MIC worked out at 2 µg/mL (≈ 4.6 µM) against Moraxella catarrhalis; 8 µg/mL (≈ 18.4 µM) against Haemophilus influenzae; 2 µg/mL (≈ 4.6 µM) in the assay with Staphylococcus aureus; 0.5 µg/mL (≈ 1.15 µM) against Streptococcus pneumoniae; 1 µg/mL (≈ 2.3 µM) against Enterococcus faecium.

In the case of `O=C(NC[C@H]1CN(c2ccc(N3C=CS(=O)(=O)CC3)c(F)c2)C(=O)O1)C(Cl)Cl`, the MIC against Moraxella catarrhalis worked out at 2 µg/mL (≈ 4.42 µM); in the assay on Haemophilus influenzae, 2 µg/mL (≈ 4.42 µM); in the assay on Staphylococcus aureus, 2 µg/mL (≈ 4.42 µM); against Streptococcus pneumoniae, 0.5 µg/mL (≈ 1.11 µM); in the assay on Enterococcus faecium it was 1 µg/mL (≈ 2.21 µM).

On to `CC(=O)NC[C@H]1CN(c2ccc(N3CCOCC3)c(F)c2)C(=O)O1` [LINEZOLID], for which the MIC came to 8 µg/mL (≈ 23.7 µM) in the assay with Moraxella catarrhalis, 16 µg/mL (≈ 47.4 µM) in the assay on Haemophilus influenzae and 4 µg/mL (≈ 11.9 µM) against Enterococcus faecium.
